Source: patent US20250304549A1, “HYDROXYAMIDE DERIVATIVE AND USE THEREOF” (SICHUAN HUIYU PHARMACEUTICAL CO., LTD., priority 2022, published 2025)
pIC50: −log10 of the molar value. Counter-ions that a name gives are not always drawn.

Columns and labels:
[1] = test system: NCI-H526 cells; test: In vitro cell inhibition assay - NCI-H526 cell proliferation (CellTiter-Glo); type: cell-based; settings: Homo sapiens, NCI-H526, 120 h, H526 small cell lung cancer cell proliferation, 5 days
Experimental: 6. In Vitro Cell Inhibition Assay—NCI-H526 Cell Proliferation
The inhibitory effect of the compounds on cell proliferation was assessed by detecting the number of viable cells using CellTiter-Glo® reagent. NCI-H526 cells in the logarithmic growth phase were collected and inoculated into transparent bottom 96-well plates at a density 1×10^3 cells per well with 100 μL of medium, and incubated at 37° C., 5% CO2 overnight. The compounds were sequentially diluted in a 5-fold concentration gradient with DMSO to obtain 8 different concentrations. These were then diluted with RPMI-640 (containing 10% FBS) cell culture medium to obtain the compound working solution (2×), which was added to the cell supernatant at 100 μL per well. The incubation continued for 5 days at 37° C., 5% CO2. The plate was then removed and equilibrated at room temperature (25° C.) along with the CellTiter-Glo® mixing reagent for 10-30 minutes; 80 μL of the culture medium was carefully aspirated from each well, and 80 μL of CellTiter-Glo® reagent was added. The cells were thoroughly mixed with the CellTiter-Glo® mixing reagent using a microplate shaker for 2 min. and then incubated at room temperature for 10 min. The 96-well plate was subsequently placed on a multifunctional microplate reader to record the Luminescence values (RLU).
The inhibition rate was calculated using the following formula: […]
Note: ‘Negative’ refers to the group without inhibitors; ‘Blank’ refers to the group without cells.
The IC50 value was determined by fitting the inhibition rate by GraphPad Prism software.

[2] = biological target: LSD1 (Homo sapiens (Human), UniProt O60341); test: In vitro enzyme inhibition assay - LSD1 (HTRF); type: biochemical
[3] = test system: NCI-H69 cells; test: In vitro cell inhibition assay - NCI-H69 cell proliferation (CellTiter-Glo); type: cell-based; settings: Homo sapiens, NCI-H69, H69 small cell lung cancer cell proliferation
Procedure, shortened: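 Over 7 days at 37° C. and 5% CO2, cells grew in RPMI-640 supplemented with 20% FBS in the presence of eight 5-fold-spaced compound concentrations.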

[4] = test system: NCI-H1417 cells; test: In vitro cell inhibition assay - H1417 cell proliferation (CellTiter-Glo); type: cell-based; settings: Homo sapiens, NCI-H1417, H1417 small cell lung cancer cell proliferation
Procedure, shortened: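 Cells exposed to 8 compound concentrations (5-fold dilutions) in BEGM with 10% FBS for 7 days at 37° C., 5% CO2. Viable cells measured by CellTiter-Glo luminescence; inhibition versus no-inhibitor and no-cell controls, IC50 fitted.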

[5] = biological target: pan-HDAC; test: In vitro enzyme inhibition assay - HDAC (HDAC-Glo I/II), pan-HDAC; type: biochemical
Procedure, shortened: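 The compound, serially diluted 5-fold in DMSO across 8 concentrations starting from a 1 mM stock, was made up as 4× working solutions in HDAC buffer. It was then tested in the HDAC-Glo I/II system, and luminescence was recorded. IC50 values came from variable-slope four-parameter curves of inhibition rate.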

[6] = biological target: HDAC8 (Homo sapiens (Human), UniProt Q9BY41); test: In vitro enzyme inhibition assay - HDAC (HDAC-Glo I/II), HDAC8; type: biochemical; settings: read-out: HDAC IC50 (nM) HDAC 8
Experimental: 2. In Vitro Enzyme Inhibition Assay—HDAC
The effect of the compound on the enzymatic activity of pan-HDAC and two isoforms (HDAC1 and HDAC8) was examined using the HDAC-Glo I/II Assay and Screening System assay to assess the level of inhibition of HDAC protease activity and selectivity in each isoform. The proteins and detection reagents were from the HDAC-Glo™ I/II Assay and Screening System (Promega). A 1 mM stock solution of the compound was prepared in DMSO and diluted in a 5-fold gradient to create a series of 8 concentrations, and a specific volume of the highest concentration was diluted 25 times with HDAC Buffer to obtain 4× working solution of the compound. […] The 384-well plate was then read on a multifunctional microplate reader, with the Luminescence channel selected to record Luminescence values (RLU). The inhibition rate was calculated using the following formula: […]
Note: ‘Negative’ refers to the group without the inhibitor; ‘Blank’ refers to the group without the enzyme.
The IC50 value was calculated by fitting the inhibition rate by GraphPad Prism software, employing log (inhibitor) vs. response-Variable Slope (four parameters) model.

Chain of HDAC8 (Q9BY41 whole entry): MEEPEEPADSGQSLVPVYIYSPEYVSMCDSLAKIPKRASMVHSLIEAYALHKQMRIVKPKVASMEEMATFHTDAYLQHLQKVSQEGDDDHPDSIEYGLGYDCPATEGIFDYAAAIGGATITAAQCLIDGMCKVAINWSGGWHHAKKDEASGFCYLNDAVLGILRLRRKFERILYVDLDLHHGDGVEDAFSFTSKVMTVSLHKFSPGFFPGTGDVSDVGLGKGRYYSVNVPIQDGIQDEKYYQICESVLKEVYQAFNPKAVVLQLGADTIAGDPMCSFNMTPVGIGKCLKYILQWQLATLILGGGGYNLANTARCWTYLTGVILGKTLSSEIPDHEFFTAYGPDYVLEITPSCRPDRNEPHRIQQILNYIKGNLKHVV

| SMILES | pIC50 [1] | pIC50 [2] | pIC50 [3] | pIC50 [4] | IC50 [5] [nM] | IC50 [6] [nM] |
| --- | --- | --- | --- | --- | --- | --- |
| COc1ccc(-c2cnc(N3CCC(NCc4ccc(CCC(=O)NO)cc4)CC3)c(C#N)c2-c2ccc(C#N)c(F)c2)cc1O [Example 43, 3-(4-((1-(3-Cyano-4-(4-cyano-3-fluorophenyl)-5-(3-hydroxy-4-methoxyphenyl)pyridin-2-yl)piperidin-4-yl)amino)methyl)phenyl)-N-hydroxypropanamide formate] | 7.45 | 9.21 | 7.41 | 8.30 |  |  |
| COc1ccc(-c2cnc(N3CCN(CCc4ccc(/C=C/C(=O)NO)cc4)CC3)c(C#N)c2-c2ccc(C#N)c(F)c2)cc1O [Example 49, (E)-3-(4-(2-(4-(3-Cyano-4-(4-cyano-3-fluorophenyl)-5-(3-hydroxy-4-methoxyphenyl)pyridin-2-yl)piperazin-1-yl)ethyl)phenyl)-N-hydroxyacrylamide hydrochloride] | 6.48 |  | 6.63 | 7.10 |  |  |
| N#Cc1ccc(-c2c(-c3ccc(C(F)(F)F)c(O)c3)cnc(N3CCC(NCc4cnc(/C=C/C(=O)NO)nc4)CC3)c2C#N)cc1F [Example 186, (E)-3-(5-(((1-(3-Cyano-4-(4-cyano-3-fluorophenyl)-5-(3-hydroxy-4-(trifluoromethyl)phenyl)pyridin-2-yl)piperidin-4-yl)amino)methyl)pyrimidin-2-yl)-N-hydroxyacrylamide formate] |  | 7.99 | 7.07 | 7.63 | 11.9 | 50.9 |
| N#Cc1ccc(-c2c(-c3ccc(C(F)(F)F)c(O)c3)cnc(N3CCC(NCc4ccc(CCC(=O)NO)cc4)CC3)c2C#N)cc1F [Example 190, 3-(4-((1-(3-Cyano-4-(4-cyano-3-fluorophenyl)-5-(3-hydroxy-4-(trifluoromethyl)phenyl)pyridin-2-yl)piperidin-4-yl)amino)methyl) phenyl)-N-hydroxypropanamide formate] |  | 8.55 | 7.03 | 8.13 | 5.96 | 336 |
| COc1ccc(-c2cnc(N3CCC(NCc4ccc(CCC(=O)NO)c(C#N)c4)CC3)c(C#N)c2-c2ccc(C#N)c(F)c2)cc1O [Example 193, 3-(2-Cyano-4-((1-(3-cyano-4-(4-cyano-3-fluorophenyl)-5-(3-hydroxy-4-methoxyphenyl)pyridin-2-yl)piperidin-4-yl)amino)methyl) phenyl)-N-hydroxypropanamide formate] |  | 8.77 | 6.66 | 7.90 | 8.36 | 297 |
| O=C(CCCCCCC(=O)Nc1ccccc1)NO [SAHA, Vorinostat, reference compound] | 6.40 |  |  |  |  |  |

More lines, now with the values ahead:

| pIC50 [1] | pIC50 [2] | pIC50 [3] | pIC50 [4] | IC50 [5] [nM] | IC50 [6] [nM] | SMILES |
| --- | --- | --- | --- | --- | --- | --- |
|  | 8.96 | 5.99 | 6.92 | 7.27 | 543 | CNc1ccc(-c2cnc(N3CCC(NCc4ccc(CCC(=O)NO)cn4)CC3)c(C#N)c2-c2ccc(C#N)c(F)c2)cc1O [Example 194, 3-(6-((1-(3-Cyano-4-(4-cyano-3-fluorophenyl)-5-(3-hydroxy-4-(methylamino)phenyl)pyridin-2-yl)piperidin-4-yl)amino)methyl) pyridin-3-yl)-N-hydroxypropanamide hydrochloride] |
|  | 8.39 | 5.78 | 7.28 | 11.8 | 172 | N#Cc1ccc(-c2c(-c3ccc(C(F)(F)F)c(O)c3)cnc(N3CCC(NCc4cnc(CCC(=O)NO)nc4)CC3)c2C#N)cc1F [Example 195, 3-(5-(1-(3-Cyano-4-(4-cyano-3-fluorophenyl)-5-(3-hydroxy-4-trifluoromethylphenyl)pyridin-2-yl)piperidin-4-ylamino)methyl) pyrimidin-2-yl)-N-hydroxypropanamide formate] |
|  | 8.18 | 7.08 | 7.41 | 5.69 | 26.5 | CNc1ccc(-c2cnc(N3CCC(NCc4cnc(/C=C/C(=O)NO)nc4)CC3)c(C#N)c2-c2ccc(C#N)c(F)c2)cc1O [Example 196, (E)-3-(5-(((1-(3-Cyano-4-(4-cyano-3-fluorophenyl)-5-(3-hydroxy-4-(methylamino)phenyl)pyridin-2-yl)piperidin-4-yl)amino)methyl)pyrimidin-2-yl)-N-hydroxyacrylamide hydrochloride] |
|  | 8.80 | 7.05 | 8.29 | 2.37 | 26.2 | CC(C)(O)COc1ccc(-c2cnc(N3CCC(NCc4ccc(CCC(=O)NO)nc4)CC3)c(C#N)c2-c2ccc(C#N)c(F)c2)cc1O [Example 204, 3-(5-((((1-(3-Cyano-4-(4-cyano-3-fluorophenyl)-5-(3-hydroxy-4-(2-hydroxy-2-methylpropoxy)phenyl)pyridin-2-yl)piperidin-4-yl)amino)methyl)pyridin-2-yl)-N-hydroxypropanamide formate] |
|  | 9.22 | 7.39 | 7.84 | 163 | 3.09 | COc1ccc(-c2cnc(N3CCC(NCc4ccc(CCC(=O)NO)cc4)CC3)c(C)c2-c2ccc(C#N)c(F)c2)cc1O [Example 209, 3-(4-(((1-(4-(4-Cyano-3-fluorophenyl)-5-(3-hydroxy-4-methoxyphenyl)-3-methylpyridin-2-yl)piperidin-4-yl)amino)methyl)phenyl)-N-hydroxypropanamide hydrochloride] |
|  | 9.51 | 6.72 | 7.97 | 2.04 | 83.5 | COc1ccc(-c2cnc(N3CCC(NCc4ccc(/C=C/C(=O)NO)cc4C)CC3)c(C#N)c2-c2ccc(C#N)c(F)c2)cc1O [Example 211, (E)-3-(4-(((1-(3-Cyano-4-(4-cyano-3-fluorophenyl)-5-(3-hydroxy-4-methoxyphenyl)pyridin-2-yl)piperidin-4-yl)amino)methyl)-3-methylphenyl)-N-hydroxyacrylamide formate] |
|  | 10.40 | 7.27 | 8.94 | 6.55 | 41.5 | C/C(=C\C(=O)NO)c1ccc(CNC2CCN(c3ncc(-c4ccc(OCC(C)(C)O)c(O)c4)c(-c4ccc(C#N)c(F)c4)c3C#N)CC2)cc1 [Example 212, (E)-3-(4-(((1-(3-Cyano-4-(4-cyano-3-fluorophenyl)-5-(3-hydroxy-4-(2-hydroxy-2-methylpropoxy)phenyl)pyridin-2-yl)piperidin-4-yl)amino)methyl)phenyl)-N-hydroxybut-2-enamide hydrochloride] |
|  | 10.15 | 5.94 | 8.88 | 82.4 | 140 | N#Cc1ccc(-c2c(-c3ccc(OCCc4ccc(/C=C/C(=O)NO)cc4)c(O)c3)cnc(N3CCC(N)CC3)c2C#N)cc1F [Example 231, (E)-3-(4-(2-(4-(6-(4-Aminopiperidin-1-yl)-5-cyano-4-(4-cyano-3-fluorophenyl)pyridin-3-yl)-2-hydroxyphenoxy)ethyl)phenyl)-N-hydroxyacrylamide hydrochloride] |
|  | 8.97 | 7.11 | 7.82 | 13.3 | 51.1 | COc1ccc(-c2c(C#N)cc(N3CCC(NCc4cnc(/C=C/C(=O)NO)nc4)CC3)nc2-c2ccc(C#N)c(F)c2)cc1O [Example 234, (E)-3-(5-(((1-(4-Cyano-6-(4-cyano-3-fluorophenyl)-5-(3-hydroxy-4-methoxyphenyl)pyridin-2-yl)piperidin-4-yl)amino)methyl)pyrimidin-2-yl)-N-hydroxyacrylamide formate] |
